Experimental findings from patent EP4813992A1, “POLYARYL DERIVATIVE AND USE THEREOF” (Hangzhou HealZen Therapeutics Co., Ltd., priority 2023, dated 2025) are described below.

In experiment [1] the target is T1, HPK1 kinase (Homo sapiens, UniProt Q92918). The experiment can be described thus: Activity of degrading HPK1 in Jurkat cells (Western blot, 24 h). The experiment is classed as cell-based. Also on record: endogenous in cells; host or cells: Jurkat. The conditions noted are these: HPK1 protein degradation. As for the experimental part:
The adjusted samples are added to 5*loading buffer, boiled at 100°C for 10 minutes, and then the samples are loaded after the temperature is returned to room temperature. • 4) Detection of samples: Electrophoresis is performed using 10% SDS-PAGE with a sample loading volume of 8 µL/well. After the membrane transfer is completed, the samples are blocked with 5% BSA at room temperature for 1 h. After the residual blocking solution is washed away with TBST, HPK1 and GAPDH antibodies are added for incubation overnight at 4°C. Washing is performed 3 more times with TBST on a shaker, 10 minutes each time. After washing is completed, the secondary antibody is added for incubation at room temperature for 1 hour; then, washing is performed 3 more times with TBST on a shaker, 10 minutes each time; finally, ECL exposure solution is used to develop and image the bands to detect changes in HPK1 protein.

The target in experiment [2] is T1, HPK1 kinase. The experiment is described as follows: Lantha screen assay, inhibitory effect on HPK1 kinase. Format: biochemical. The settings on record: initial compound concentration 1 µM. As for the experimental part:
The Lantha screen assay is used to evaluate the inhibitory effect of the compounds on HPK1 kinase. • a) Kinase buffer: 50 mM HEPES (pH 7.5), 10 mM MgCl2, 4 mM DTT, 0.01% Tween-20, 0.01% BSA. • b) Compound Preparation: The compound is diluted with DMSO, and the initial detection concentration of the compound is 1 µM and is diluted to the corresponding concentration. • c) Kinase response and termination: A kinase solution is prepared by adding kinase buffer, the kinase solution and the compound are added to the test plate to be incubated at room temperature for 10 minutes. Fluorescein-PKC and ATP are added to the kinase buffer to form a substrate solution, and 5 µl of the substrate solution is added to the test plate to start the reaction to be incubated at room temperature for 90 minutes; then, 10 µl of a mixture of antibody and EDTA is added to terminate the reaction to be incubated at room temperature for 60 minutes. • d) The date is read by Envision instrument to plot a curve with the Log concentration of the inhibitor as the X-axis and the inhibition rate as the Y-axis, and then the formula Y=Bottom + (Top-Bottom)/(1+(IC50/X)^HillSlope) is used to obtain IC50. Table 1 Inhibitory activity the compounds of the invention on HPK1 kinase

Structures are written as SMILES.

T1 sequence (Q92918 whole entry): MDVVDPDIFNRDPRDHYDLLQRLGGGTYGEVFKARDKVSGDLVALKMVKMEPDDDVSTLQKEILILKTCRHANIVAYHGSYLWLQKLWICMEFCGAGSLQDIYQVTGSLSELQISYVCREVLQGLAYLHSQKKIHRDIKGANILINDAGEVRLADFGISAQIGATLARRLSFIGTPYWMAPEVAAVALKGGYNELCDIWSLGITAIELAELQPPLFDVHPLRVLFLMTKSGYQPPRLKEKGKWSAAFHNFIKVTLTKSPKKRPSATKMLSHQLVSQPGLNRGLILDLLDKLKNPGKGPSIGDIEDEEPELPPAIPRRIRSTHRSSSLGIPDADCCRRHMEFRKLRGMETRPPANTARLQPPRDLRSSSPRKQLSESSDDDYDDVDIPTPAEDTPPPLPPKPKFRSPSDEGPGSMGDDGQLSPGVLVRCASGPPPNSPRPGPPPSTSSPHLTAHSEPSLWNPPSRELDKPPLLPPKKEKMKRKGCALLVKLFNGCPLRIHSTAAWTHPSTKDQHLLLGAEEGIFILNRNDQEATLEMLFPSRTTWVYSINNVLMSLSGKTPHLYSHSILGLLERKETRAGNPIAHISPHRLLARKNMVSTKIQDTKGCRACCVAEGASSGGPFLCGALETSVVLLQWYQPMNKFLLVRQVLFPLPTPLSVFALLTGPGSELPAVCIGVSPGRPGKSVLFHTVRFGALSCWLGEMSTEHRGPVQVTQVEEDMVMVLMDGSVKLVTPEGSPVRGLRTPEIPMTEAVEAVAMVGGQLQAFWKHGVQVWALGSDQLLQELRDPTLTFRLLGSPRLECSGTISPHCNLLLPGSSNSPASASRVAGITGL

In general, DC50 refers to the concentration giving 50% degradation. The term IC50 denotes the midpoint of a concentration-inhibition curve. The low end stands for higher potency, the high end for lower potency. Take `CCN1CCC(n2cc(-c3c[nH]c4ncc(-c5cc(C)c(C6=CCN(CC7CN(c8ccc(N9CCC(=O)NC9=O)c(F)c8)C7)CC6)c(C)c5)nc34)cn2)CC1` [compound 108]: the half-maximal degradation concentration (DC50) in experiment [1] (numeric values) stood at 22.3 nM. The compound also registered an IC50 in experiment [2] below 10 nM. Consider `Cc1cc(N2CC(CN3CC=C(c4c(C)cc(-c5cnc6[nH]cc(-c7cnc8c(c7)N(C)CCO8)c6n5)cc4C)CC3)C2)ccc1N1CCC(=O)NC1=O` [compound 132], for which, in experiment [1] (class symbols), the DC50 is below 10 nM. In addition, in experiment [2], the IC50 is below 10 nM. `Cc1cc(N2CC(CN3CC=C(c4c(C)cc(-c5cnc6[nH]cc(-c7ccc(C(=O)N(C)C)cc7F)c6n5)cc4C)CC3)C2)ccc1N1CCC(=O)NC1=O` [compound 140] came in with a DC50 in experiment [1] (class symbols) below 10 nM. In experiment [2], this compound came in with a half-maximal inhibitory concentration (IC50) below 10 nM. On to `Cc1ccn2c(-c3c[nH]c4ncc(-c5cc(C)c(C6=CCN(CC7CN(c8ccc(N9CCC(=O)NC9=O)c(F)c8)C7)CC6)c(C)c5)nc34)cnc2c1` [compound 168], for which the DC50 in experiment [1] (class symbols) was below 10 nM. This compound showed an IC50 in experiment [2] below 10 nM. `Cc1cc(N2CC(CN3CC=C(c4c(C)cc(-c5cnc6[nH]cc(-c7cnc8ccn(C)c8c7)c6c5)cc4C)CC3)C2)ccc1N1CCC(=O)NC1=O` [compound 111] displayed a DC50 in experiment [1] (class symbols) below 10 nM. For the same compound, the IC50 in experiment [2] is below 10 nM.

In experiment [1] (class symbols), `Cc1cc(-c2cnc3[nH]cc(-c4cnco4)c3n2)cc(C)c1C1=CCN(CC2CN(c3ccc(N4CCC(=O)NC4=O)c(F)c3)C2)CC1` [compound 169] had a DC50 below 10 nM. In experiment [2], this compound came in with an IC50 below 10 nM. In the case of `Cc1cc(-c2cnc3[nH]cc(-c4cncs4)c3n2)cc(C)c1C1=CCN(CC2CN(c3ccc(N4CCC(=O)NC4=O)c(F)c3)C2)CC1` [compound 153], the DC50 in experiment [1] (class symbols) was below 10 nM. This compound also displayed an IC50 in experiment [2] below 10 nM. The compound `Cc1cc(-c2cnc3[nH]cc(-c4c(C)noc4C)c3n2)cc(C)c1C1=CCN(CC2CN(c3ccc(N4CCC(=O)NC4=O)c(F)c3)C2)CC1` [compound 155] displayed a DC50 in experiment [1] (class symbols) below 10 nM. Also, in experiment [2], the IC50 is below 10 nM. In turn, `Cc1cc(-c2cnc3[nH]cc(-n4cc(N5CCOCC5)cn4)c3n2)cc(C)c1C1=CCN(CC2CN(c3ccc(N4CCC(=O)NC4=O)c(F)c3)C2)CC1` [compound 157] displayed a DC50 in experiment [1] (class symbols) below 10 nM. For the same compound, the IC50 in experiment [2] is below 10 nM. The compound `CCc1nc(C)c(-c2c[nH]c3ncc(-c4cc(C)c(C5=CCN(CC6CN(c7ccc(N8CCC(=O)NC8=O)c(F)c7)C6)CC5)c(C)c4)nc23)s1` [compound 152] gave a DC50 in experiment [1] (class symbols) below 10 nM. In experiment [2], this compound yielded an IC50 below 10 nM. `Cc1cc(N2CC(CN3CC=C(c4ccc(-c5cnc6[nH]cc(-c7ccc(C(=O)N(C)C)cc7)c6n5)cc4CN(C)C)CC3)C2)ccc1N1CCC(=O)NC1=O` [compound 139] displayed a DC50 in experiment [1] (class symbols) below 10 nM. In experiment [2], the IC50 is below 10 nM.

As to `Cc1cc(-c2cnc3[nH]cc(-c4ccc(C(=O)N(C)C)cc4)c3n2)cc(C)c1C1=CCN(C2CC3(C2)CN(c2ccc(N4CCC(=O)NC4=O)c(F)c2)C3)CC1` [compound 119], the DC50 in experiment [1] (class symbols) is below 10 nM. Moreover, the IC50 in experiment [2] is below 10 nM.

For the compound `Cc1cc(N2CC(CN3CC=C(c4c(C)cc(-c5cnc6[nH]cc(-c7ccc(C(=O)N(C)C)cc7)c6c5)cc4C)CC3)C2)ccc1N1CCC(=O)NC1=O` [compound 013], the DC50 in experiment [1] (class symbols) is below 10 nM. The concentration for half-maximal inhibition (IC50) in experiment [2] is below 10 nM.

In experiment [1] (class symbols), `Cc1cc(-c2cnc3[nH]cc(-c4ccc(C(=O)N(C)C)cc4)c3n2)cc(C)c1C1=CCN(CC2CN(c3ccc(C4CCC(=O)NC4=O)c(F)c3)C2)CC1` (centres unmarked) [compound 003] returned a DC50 below 10 nM. Further, in experiment [2], the IC50 is below 10 nM. In the case of `Cc1cnn(-c2c[nH]c3ncc(-c4cc(C)c(C5=CCN(CC6CN(c7ccc(N8CCC(=O)NC8=O)c(F)c7)C6)CC5)c(C)c4)nc23)c1` [compound 158], the DC50 in experiment [1] (class symbols) was below 10 nM. The compound also showed an IC50 in experiment [2] below 10 nM. On to `Cc1cc(-c2cnc3[nH]cc(-c4ccc(C(=O)N(C)C)cc4)c3n2)cc(C)c1C1=CCN(CC2CN(c3ccc(N4CCC(=O)NC4=O)cc3)C2)CC1` [compound 008], for which the DC50 in experiment [1] (class symbols) was below 10 nM. The half-inhibitory concentration (IC50) in experiment [2] is below 10 nM.

On to `Cc1cc(-c2cnc3[nH]cc(-c4cnsc4)c3n2)cc(C)c1C1=CCN(CC2CN(c3ccc(N4CCC(=O)NC4=O)c(F)c3)C2)CC1` [compound 154], for which, in experiment [1] (class symbols), the DC50 was below 10 nM. In experiment [2], this compound came in with an IC50 below 10 nM. As to `Cc1cc(-c2cnc3[nH]cc(-c4cnc5ccc(C#N)cn45)c3n2)cc(C)c1C1=CCN(CC2CN(c3ccc(N4CCC(=O)NC4=O)c(F)c3)C2)CC1` [compound 166], in experiment [1] (class symbols), the DC50 was below 10 nM. The IC50 in experiment [2] is below 10 nM. `Cc1cc(-c2cnc3[nH]cc(-c4ccc(C(=O)N(C)C)cc4)c3n2)cc(C)c1C1=CCN(CC2CN(c3cc(F)c(N4CCC(=O)NC4=O)c(F)c3)C2)CC1` [compound 141] had a DC50 in experiment [1] (class symbols) below 10 nM.

In the case of `Cc1cc(-c2cnc(N)c(Oc3ccc(C(=O)N(C)C)cc3)n2)cc(C)c1C1=CCN(CC2CN(c3ccc(C(=O)NC4CCC(=O)NC4=O)cc3)C2)CC1` (centres unmarked) [compound 093], the IC50 in experiment [2] is below 10 nM. Same read-out and setting: under `Cc1cc(-c2cnc3[nH]cc(-c4ccc(C(=O)N(C)C)cc4)c3n2)cc(C)c1C1=CCN(C(=O)C2CN(c3ccc(C4CCC(=O)NC4=O)cc3)C2)CC1` (centres unmarked) [compound 060] stands below 10 nM; under `CNc1cc(-c2cnc3[nH]cc(-c4ccc(C(=O)N(C)C)cc4)c3n2)ccc1C1=CCN(CC2CN(c3ccc(N4CCC(=O)NC4=O)c(C)c3)C2)CC1` [compound 131], below 10 nM. On the same count and under the same terms, under `CN(C)C(=O)c1ccc(-c2c[nH]c3ncc(-c4ccc(C5=CCN(CC6CN(c7ccc(C(=O)NC8CCC(=O)NC8=O)cc7)C6)CC5)c(C5CCCN5)c4)nc23)cc1` (centres unmarked) [compound 058] stands below 10 nM; under `Cc1cc(N2CC(CN3CC=C(c4c(C)cc(-c5cnc6[nH]cc(-c7ccc(-c8ncco8)cc7)c6c5)cc4C)CC3)C2)ccc1N1CCC(=O)NC1=O` [compound 138], below 10 nM; under `COc1cc(N2CC(CN3CC=C(c4c(C)cc(-c5cnc6[nH]cc(-c7ccc(C(=O)N(C)C)cc7)c6n5)cc4C)CC3)C2)ccc1N1CCC(=O)NC1=O` [compound 004], below 10 nM. Consider `COc1cc(C(=O)CCN2CC=C(c3c(C)cc(-c4cnc5[nH]cc(-c6ccc(C(=O)N(C)C)cc6)c5n4)cc3C)CC2)ccc1C1CCC(=O)NC1=O` (centres unmarked) [compound 009], for which the IC50 in experiment [2] was below 10 nM. Same read-out and setting: the same measure for `Cc1cc(C2CC(CN3CC=C(c4c(C)cc(-c5cnc6[nH]cc(-c7ccc(C(=O)N(C)C)cc7)c6n5)cc4C)CC3)C2)ccc1N1CCC(=O)NC1=O` (centres unmarked) [compound 039]: below 10 nM; for `CNS(=O)(=O)c1cc(C)cc(-c2cnc(N)c(Oc3cnn(C4CCN(CC5CN(c6ccc(C(=O)NC7CCC(=O)NC7=O)cc6)C5)CC4)c3)n2)c1` (centres unmarked) [compound 090]: below 10 nM; for `Cc1cc(N2CC(CN3CC=C(c4c(C)cc(-c5cnc6[nH]cc(-c7ccc(C(=O)N(C)C)cc7)c6n5)cc4C)CC3)C2)ccc1NC1CCC(=O)NC1=O` (centres unmarked) [compound 021]: below 10 nM.

For the compound `Cc1cc(-c2cnc3[nH]nc(-c4ccc(C(=O)N(C)C)cc4)c3c2)cc(C)c1C1=CCN(C2CCN(c3ccc(C(=O)NC4CCC(=O)NC4=O)cn3)CC2)CC1` (centres unmarked) [compound 080], the IC50 in experiment [2] was below 10 nM. In experiment [2], `Cc1cc(-c2cnc3[nH]cc(-c4ccc(C(=O)N(C)C)cc4)c3n2)cnc1C1=CCN(C2CCN(c3ccc(N4CCC(=O)NC4=O)c(F)c3)C2)CC1` (centres unmarked) [compound 055] came in with a concentration for half-maximal inhibition (IC50) below 10 nM. Regarding `Cc1cc(-c2cnc(N)c(Oc3cnn(C4CCN(C)CC4)c3)n2)cc(C)c1C1=CCN(CC2CN(c3ccc(C4CCC(=O)NC4=O)cc3)C2)CC1` (centres unmarked) [compound 096], the IC50 in experiment [2] was below 10 nM.

`Cc1cc(-c2cnc3[nH]cc(-c4ccc(C(=O)N(C)C)cc4)c3n2)cc(C)c1C1=CCN(CC2CC2Nc2ccc(C(=O)NC3CCC(=O)NC3=O)cc2)CC1` (centres unmarked) [compound 036] registered an IC50 in experiment [2] below 10 nM.

In the case of `Cc1cc(-c2cnc3[nH]cc(-c4ccc(C(=O)N(C)C)cc4)c3n2)cc(C)c1C1=CCN(CC2CN(c3ncc(C(=O)NC4CCC(=O)NC4=O)o3)C2)CC1` (centres unmarked) [compound 068], in experiment [2], the IC50 was below 10 nM. `Cc1cc(-c2cnc3[nH]cc(-c4ccc(C(=O)N(C)C)nc4)c3n2)cc(C)c1C1=CCN(CC2CN(c3ccc(C(=O)NC4CCC(=O)NC4=O)cc3)C2)CC1` (centres unmarked) [compound 030]: in experiment [2], the IC50 is below 10 nM.

In experiment [2], `Cc1cc(N2CC(CN3CC=C(c4c(C)cc(-c5cnc6[nH]cc(-c7cnn(C8CCOCC8)c7)c6c5)cc4C)CC3)C2)ccc1N1CCC(=O)NC1=O` [compound 114] registered an IC50 below 10 nM. On the same count and under the same terms, the same measure for `Cc1cc(N2CC(N3CC=C(c4c(C)cc(-c5cnc6[nH]cc(-c7ccc(C(=O)N(C)C)cc7)c6n5)cc4C)CC3)C2)ccc1N1CCC(=O)NC1=O` [compound 125]: below 10 nM; for `Cc1cc(-c2cnc3[nH]cc(-c4ccc(C(=O)N(C)C)cc4)c3n2)cc(C)c1C1=CCN(CC2CN(c3cccc(N4CCC(=O)NC4=O)c3C)C2)CC1` [compound 027]: below 10 nM.
